The test system of one assay is PC3MM cells. Put plainly: Cell Proliferation Assay (Cell Titer Glo), PC3MM. The format is cell-based. As to conditions: Cell Proliferation Assay, PC3MM; read-out: CPEC50 PC3MM. How it is done: IV. Cell Proliferation Assay Protocol:
A2780, PC-3, or PC3MM cells were seeded at 1000 cells/well in 100 μL/well (10.000 cells/mL) growth media in 96-well plates. Cells were allowed to adhere to the bottom of plates for 3-5 hours in a 37° C. 5% CO2 incubator. Compounds were dissolved in DMSO and then transferred to the cell plates. The cells were incubated with the compounds for 3 days in a 37° C. 5% CO2 incubator. The growth medium containing the compounds was then removed from the cells and fresh medium was added, followed by 100 μL of Cell Titer Glo assay reagent (Promega). This mixture was shaken for 1 minute and then incubated without shaking for 10 minutes. Activity determinations for the compounds were made by detection on a Trilux Instrument.

The target of the next assay is T1, PDK1 kinase (Homo sapiens, UniProt O15530).
T1 sequence (O15530 1-556): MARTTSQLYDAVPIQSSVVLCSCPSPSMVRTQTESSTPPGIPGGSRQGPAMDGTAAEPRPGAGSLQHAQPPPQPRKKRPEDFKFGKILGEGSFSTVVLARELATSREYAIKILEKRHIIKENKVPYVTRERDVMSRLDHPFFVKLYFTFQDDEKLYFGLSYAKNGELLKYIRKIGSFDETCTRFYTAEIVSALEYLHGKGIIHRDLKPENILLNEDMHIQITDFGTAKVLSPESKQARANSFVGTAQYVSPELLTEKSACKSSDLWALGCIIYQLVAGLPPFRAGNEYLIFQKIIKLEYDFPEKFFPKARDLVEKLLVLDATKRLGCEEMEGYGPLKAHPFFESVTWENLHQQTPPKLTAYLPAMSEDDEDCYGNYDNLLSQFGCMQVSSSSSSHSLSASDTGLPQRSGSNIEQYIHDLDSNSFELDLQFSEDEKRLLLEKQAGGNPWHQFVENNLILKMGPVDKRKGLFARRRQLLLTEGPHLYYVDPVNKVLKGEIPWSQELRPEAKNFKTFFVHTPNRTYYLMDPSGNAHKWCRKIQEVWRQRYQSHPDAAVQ
Put plainly: PDK1 Kinase Alpha Screen Assay. The assay is classed as biochemical. As to conditions: read-out: PDK1 IC50. The procedure, abridged: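 AlphaScreen readout: phospho-peptide captured by phospho-(Ser/Thr) PKA substrate antibody (0.3 mg/ml) on protein A acceptor beads, biotin peptide on streptavidin donor beads (25 μg/ml each), overnight at room temperature. Kinase step used 50 nM PDK1-4 peptide, 10 uM ATP, 3-18 hours.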

The test system of another assay is A2780 cells. Briefly: Cell Proliferation Assay (Cell Titer Glo), A2780. The assay is classed as cell-based. The following applies: Homo sapiens, A2780 cells, read-out: CPEC50 A2780. The procedure, abridged:
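Following a 3-day compound exposure (37° C., 5% CO2) of A2780 or PC3MM cells plated at 1000 per well, viability was measured by Cell Titer Glo luminescence in fresh medium, read 10 min after reagent addition.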

Another assay relates to PC-3 cells. Put plainly: Cell Proliferation Assay (Cell Titer Glo), PC-3 cell line. The format is cell-based. The following applies: Homo sapiens, read-out: CPEC50 PC3. Summed up: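 Cell Titer Glo luminescence, read after fresh medium replaced the dosing medium, gave viability of PC-3 cells plated at 1000 cells/well. Compounds, 1:3 serially diluted in DMSO at 500× and then in medium, were added after 3-5 h adhesion and incubated 3 days at 37° C.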
(In general: Cellular ATP, detected with luciferase, serves as a proxy for viable cell number.)

Setting [1] is: PC-3, cell proliferation, PC3 cells.

Like-named read-outs stand apart in the source and are kept apart here.

The term IC50 denotes the concentration that inhibits the measured activity by half.

Turning to `c1cc(N2CCOCC2)ccc1Nc1ncc2cc(-c3cn[nH]c3)c(OC3CCNCC3)cc2n1` [Compound 651, N-(4-morpholinophenyl)-7-(piperidin-4-yloxy)-6-(1H-pyrazol-4-yl)quinazolin-2-amine], in the assay on PC3MM cells, the EC50 is less than 5 µM. Moreover, the IC50 on PDK1 kinase (PDK1 Kinase Alpha Screen Assay) is less than 5 µM.

As to `CN1CCC(Oc2cc3nc(Nc4ccc(N5CCOCC5)cc4)ncc3cc2-c2cn[nH]c2)CC1` [Compound 654, 7-(1-methylpiperidin-4-yloxy)-N-(4-morpholinophenyl)-6-(1H-pyrazol-4-yl)quinazolin-2-amine], the EC50 with PC3MM cells is less than 5 µM. Also, on PDK1 kinase (PDK1 Kinase Alpha Screen Assay), the IC50 was less than 5 µM.

As for `CN1CCC(Oc2ccc3cnc(Nc4ccc(N5CCOCC5)cc4)nc3c2)CC1` [Compound 655, 7-(1-methylpiperidin-4-yloxy)-N-(4-morpholinophenyl)quinazolin-2-amine], the EC50 in the assay on PC3MM cells was less than 5 µM. At PDK1 kinase (PDK1 Kinase Alpha Screen Assay), the IC50 was less than 5 µM.

Consider `COC(=O)Nc1cc(CN2CCOCC2)cc(Nc2ncc3cccc(OC4CCNCC4)c3n2)c1` [Compound 656, methyl 3-(morpholinomethyl)-5-(8-(piperidin-4-yloxy)quinazolin-2-ylamino)phenylcarbamate], for which the EC50 in the assay with PC3MM cells is less than 5 µM. Also, the IC50 at PDK1 kinase (PDK1 Kinase Alpha Screen Assay) is less than 5 µM.

Turning to `C#Cc1cc(OC2CCNCC2)c2nc(Nc3cc(NC(C)=O)cc(-c4cncnc4)c3)ncc2c1` [Compound 657, N-(3-(6-ethynyl-8-(piperidin-4-yloxy)quinazolin-2-ylamino)-5-(pyrimidin-5-yl)phenyl)acetamide], the EC50 with PC3MM cells was less than 5 µM. The IC50 at PDK1 kinase (PDK1 Kinase Alpha Screen Assay) was less than 5 µM.

With `CC(=O)Nc1cc(NC(C)=O)cc(Nc2ncc3ccc(OC4CCNCC4)cc3n2)c1` [Compound 658, N,N′-(5-(7-(piperidin-4-yloxy)quinazolin-2-ylamino)-1,3-phenylene)diacetamide], in the assay with PC3MM cells, the EC50 fell in the range of 5 to 10 µM. The IC50 on PDK1 kinase (PDK1 Kinase Alpha Screen Assay) was less than 5 µM.

`CC(=O)Nc1cc(Nc2ncc3ccc(OC4CCNCC4)cc3n2)cc(-c2cn[nH]c2)c1` [Compound 659, N-(3-(7-(piperidin-4-yloxy)quinazolin-2-ylamino)-5-(1H-pyrazol-4-yl)phenyl)acetamide]: the EC50 in the assay on PC3MM cells is less than 5 µM. For the same molecule, at PDK1 kinase (PDK1 Kinase Alpha Screen Assay), the half-inhibitory concentration (IC50) is less than 5 µM.

As for `NS(=O)(=O)c1ccc(Nc2ncc3cc(F)cc(-c4ccc(NCCN5CCCC5)nc4)c3n2)cc1` [Compound 892, 4-(6-fluoro-8-(6-(2-(pyrroidin-1-yl)ethylamino)pyridin-3-yl)quinazolin-2-ylamino)benzenesulfonamide], the EC50 in the assay with A2780 cells (cell proliferation) and in the assay on PC-3 cells (setting [1]) was less than 5 µM in each case. Moreover, the IC50 at PDK1 kinase (PDK1 Kinase Alpha Screen Assay) is less than 5 µM.

With `COCCNc1ccc(-c2cc(F)cc3cnc(Nc4ccc(S(N)(=O)=O)cc4)nc23)cn1` [Compound 893, 4-(6-fluoro-8-(6-(2-methoxyethylamino)pyridin-3-yl)quinazolin-2-ylamino)benzenesulfonamide], the EC50 in the assay with A2780 cells (cell proliferation) and with PC-3 cells (setting [1]) was less than 5 µM throughout. Besides, the IC50 on PDK1 kinase (PDK1 Kinase Alpha Screen Assay) was less than 5 µM.

With `NS(=O)(=O)c1ccc(Nc2ncc3cc(F)cc(-c4ccc(N5CCOCC5)nc4)c3n2)cc1` [Compound 894, 4-(6-fluoro-8-(6-morpholinopyridin-3-yl)quinazolin-2-ylamino)benzenesulfonamide], the EC50 with A2780 cells (cell proliferation) and in the assay with PC-3 cells (setting [1]) was less than 5 µM in each case. In addition, the IC50 at PDK1 kinase (PDK1 Kinase Alpha Screen Assay) is less than 5 µM.

Turning to `Cn1cc(-c2ccc3cnc(Nc4ccc(S(N)(=O)=O)cc4)nc3c2-c2ccccc2)cn1` [Compound 904, 4-(7-(1-methyl-1H-pyrazol-4-yl)-8-phenylquinazolin-2-ylamino)benzenesulfonamide], the EC50 with A2780 cells (cell proliferation) and in the assay with PC-3 cells (setting [1]) was less than 5 µM in each case. At PDK1 kinase (PDK1 Kinase Alpha Screen Assay), the IC50 is less than 5 µM.

On to `Cn1cc(-c2ccc3cnc(Nc4ccc(S(N)(=O)=O)cc4)nc3c2-c2ccc(N)nc2)cn1` [Compound 905, 4-(8-(6-aminopyridin-3-yl)-7-(1-methyl-1H-pyrazol-4-yl)quinazolin-2-ylamino)benzenesulfonamide], for which the EC50 in the assay with A2780 cells (cell proliferation) and in the assay on PC-3 cells (setting [1]) was less than 5 µM each time. In addition, the IC50 on PDK1 kinase (PDK1 Kinase Alpha Screen Assay) was less than 5 µM.

Consider `CN1CCN(C(=O)c2ccc(-c3c(-c4cnn(C)c4)ccc4cnc(Nc5ccc(S(N)(=O)=O)cc5)nc34)cc2)CC1` [Compound 906, 4-(7-(1-methyl-1H-pyrazol-4-yl)-8-(4-(4-methylpiperazine-1-carbonyl)phenyl)quinazolin-2-ylamino)benzenesulfonamide], for which the EC50 with A2780 cells (cell proliferation) and in the assay on PC-3 cells (setting [1]) was less than 5 µM in each case. The IC50 at PDK1 kinase (PDK1 Kinase Alpha Screen Assay) is less than 5 µM.

With `Cn1cc(-c2ccc3cnc(Nc4ccc(S(N)(=O)=O)cc4)nc3c2-c2ccc(F)nc2)cn1` [Compound 907, 4-(8-(6-fluoropyridin-3-yl)-7-(1-methyl-1H-pyrazol-4-yl)quinazolin-2-ylamino)benzenesulfonamide], the EC50 with A2780 cells (cell proliferation) and in the assay on PC-3 cells (setting [1]) was less than 5 µM in each case. At PDK1 kinase (PDK1 Kinase Alpha Screen Assay), the IC50 was less than 5 µM.

For `COCCNc1ccc(-c2c(-c3cnn(C)c3)ccc3cnc(Nc4ccc(S(N)(=O)=O)cc4)nc23)cn1` [Compound 908, 4-(8-(6-(2-methoxyethylamino)pyridin-3-yl)-7-(1-methyl-1H-pyrazol-4-yl)quinazolin-2-ylamino)benzenesulfonamide], the EC50 in the assay with A2780 cells (cell proliferation) and in the assay with PC-3 cells (setting [1]) was less than 5 µM throughout. In addition, the IC50 on PDK1 kinase (PDK1 Kinase Alpha Screen Assay) is less than 5 µM.

On to `Cn1cc(-c2ccc3cnc(Nc4ccc(S(N)(=O)=O)cc4)nc3c2-c2ccc(N3CCOCC3)nc2)cn1` [Compound 909, 4-(7-(1-methyl-1H-pyrazol-4-yl)-8-(6-morpholinopyridin-3-yl)quinazolin-2-ylamino)benzenesulfonamide], for which the EC50 in the assay on A2780 cells (cell proliferation) and with PC-3 cells (setting [1]) was less than 5 µM each time. Also, the half-maximal inhibitory concentration (IC50) on PDK1 kinase (PDK1 Kinase Alpha Screen Assay) was less than 5 µM.

`CN1CCN(c2ccc(-c3c(-c4cnn(C)c4)ccc4cnc(Nc5ccc(S(N)(=O)=O)cc5)nc34)cn2)CC1` [Compound 910, 4-(7-(1-methyl-1H-pyrazol-4-yl)-8-(6-(4-methylpiperazin-1-yl)pyridin-3-yl)quinazolin-2-ylamino)benzenesulfonamide]: the EC50 with A2780 cells (cell proliferation) and in the assay with PC-3 cells (setting [1]) was less than 5 µM each time. Further, the IC50 on PDK1 kinase (PDK1 Kinase Alpha Screen Assay) is less than 5 µM.

Regarding `NS(=O)(=O)c1ccc(Nc2ncc3ccc(-c4ccccc4)c(OC4CCNCC4)c3n2)cc1` [Compound 911, 4-(7-phenyl-8-(piperidin-4-yloxy)quinazolin-2-ylamino)benzenesulfonamide], the EC50 in the assay with A2780 cells (cell proliferation) and in the assay with PC-3 cells (setting [1]) was less than 5 µM throughout. Moreover, the IC50 at PDK1 kinase (PDK1 Kinase Alpha Screen Assay) is less than 5 µM.

Take `NS(=O)(=O)c1ccc(Nc2ncc3cc(F)cc(-c4ccc(N5CCS(=O)(=O)CC5)nc4)c3n2)cc1` [Compound 913]: the EC50 in the assay with A2780 cells (cell proliferation) and with PC-3 cells (setting [1]) was less than 5 µM each time. The concentration for half-maximal inhibition (IC50) at PDK1 kinase (PDK1 Kinase Alpha Screen Assay) was less than 5 µM.

For `CC(C)Nc1ccc(-c2cc(F)cc3cnc(Nc4ccc(S(N)(=O)=O)cc4)nc23)cn1` [Compound 914, 4-(6-fluoro-8-(6-(isopropylamino)pyridin-3-yl)quinazolin-2-ylamino)benzenesulfonamide], the EC50 with A2780 cells (cell proliferation) and in the assay on PC-3 cells (setting [1]) was less than 5 µM throughout. Moreover, on PDK1 kinase (PDK1 Kinase Alpha Screen Assay), the IC50 was less than 5 µM.

Take `CN1CCN(C(=O)c2ccc(-c3cc(F)cc4cnc(Nc5ccc(S(N)(=O)=O)cc5)nc34)cc2)CC1` [Compound 915, 4-(6-fluoro-8-(4-(4-methylpiperazine-1-carbonyl)phenyl)quinazolin-2-ylamino)benzenesulfonamide]: the EC50 was less than 5 µM in the assay with A2780 cells and less than 5 µM in the assay on PC-3 cells (PC-3, PC3 cells). Also, on PDK1 kinase, the IC50 was less than 5 µM.

On to `CC(C)N1CCN(Cc2cccc3cnc(Nc4ccc(S(N)(=O)=O)cc4)nc23)CC1` [Compound 925, 4-(8-((4-isopropylpiperazin-1-yl)methyl)quinazolin-2-ylamino)benzenesulfonamide], for which the EC50 was less than 5 µM in the assay on A2780 cells and 5 to 10 µM with PC-3 cells (PC-3, PC3 cells). Further, the IC50 on PDK1 kinase was less than 5 µM.

Values taken from patent publication US7932262B2 (Novartis AG, priority 2006, dated 2011).
